# Measurements published in the METLIN SMRT retention time set (Domingo-Almenara et al. 2019).
# Assay: gradient 5% acetonitrile 3 min, to 50% in 2 min, to 85% in 15 min, held 3 min, 100 µL/min
# Conditions: column: Zorbax Extend-C18 2.1 x 50 mm; eluents: water / acetonitrile, 0.1% formic acid
# How it was run: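 Data were gathered over 3 months by HPLC coupled to a quadrupole time-of-flight mass spectrometer, operated in positive and negative ionization mode. Mixtures of ~100 pure standards ran on a Zorbax Extend-C18 column (2.1 × 50 mm, 1.8 μm) at 100 μL/min, with water and acetonitrile each containing 0.1% formic acid and dead and dwell volumes of 40 μL and 900 μL. Retention time was read from adduct peaks picked by computer and checked manually.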
row,Structure (SMILES),RP-LC retention time [s]
1,O=C(Nc1ccc(Cn2cncn2)cc1)c1ccccn1,654
2,CCCn1cc(CCNC(=O)c2c(F)cccc2Cl)c2cccnc21,764
3,CCCOc1ccc(C(=O)Nc2nnc(SCc3nnc(-c4ccccc4C)o3)s2)cc1,1110
4,CCSc1nnc(-c2nn(C)c3c2CN(S(=O)(=O)c2ccc(C)c(F)c2)CC3)n1CC,1000
5,CCN1CCC(N2CCC3(CC2)NCCc2c3[nH]c3ccc(OC)cc23)CC1,517
6,CCn1ccc(NC(=O)c2cccc(C)c2)n1,743
7,O=C(Cn1nc2c(cc1=O)CCCCC2)Nc1nc(-c2cccnc2)cs1,646
8,CCCC(NC(=O)c1ccc(OCC)c(OCC)c1)C(=O)Nc1nc2ccccc2[nH]1 (stereo not given),733
9,O=c1ccc(-c2ccc(Cl)cc2)nn1CCc1nc(-c2ccc3c(c2)OCO3)no1,1040
10,CCN(C(=O)Cc1ccccc1)c1nc(-c2ccccc2)cs1,1270
11,CCc1nc(-n2cccc2)sc1C(=O)Nc1ccc(OC)c(OC)c1,965
12,COc1ccc(CNC(=O)C2CCCN(S(=O)(=O)c3cc(-c4noc(C)n4)cs3)C2)cc1 (stereo not given),1040
13,CC(C)Oc1ccc(-c2noc(-c3nn(-c4ccc(Cl)cc4)ccc3=O)n2)cc1,1060
14,CCCn1cnc2cc(CNC(=O)Cc3ccsc3)ccc21,619
15,Cc1cc(C)cc(-n2ncc3c(N4CCC(C(N)=O)CC4)ncnc32)c1,724
16,CCn1nc(-c2nc(C(C)(C)C)no2)ccc1=O,883
17,COC(=O)c1ccc2c(=O)n(Cc3ccc(OC)cc3)c(N3CCC(C)CC3)nc2c1,1330
18,COc1ccc(-c2nnc(-c3ccc(C)c(S(=O)(=O)N4CCCC4)c3)o2)cc1OC,937
19,CC(C)Cn1c(=O)c2ccccc2n(Cc2nc(-c3cccc(Br)c3)no2)c1=O,1290
20,Cc1c(Cl)cccc1NC(=O)/C=C/c1ccccc1,947
21,COc1ccc(Cl)cc1NC(=O)c1coc(NC(=O)C2CC2)n1,770

row,Structure (SMILES),RP-LC retention time [s]
1,CCC(CO)NCc1ccc(-c2ccc(Br)cc2)o1 (stereo not given),683
2,CSc1ncccc1C(=O)Nc1cccc(OCc2nnc(-c3ccc(Cl)cc3)o2)c1,1010
3,O=c1n(Cc2ccccc2Cl)nc2c(S(=O)(=O)N3CCc4ccccc4C3)cccn12,1030
4,COc1ccc(NC(=O)CN2CCc3[nH]c4c(C)ccc(F)c4c(=O)c3C2)cc1OC,1050
5,CCOC(=O)C(=O)Nc1ccc(OC)c(OC)c1,650
6,Cc1cccc(NC(=O)Cn2c(=O)n(-c3ccccc3)c3ncccc32)c1,851
7,O=C(c1cccnn1)N1CC(F)(F)C[C@H]1c1nnc(-c2ccccc2)o1,746
8,Cc1ccc2[nH]cc(CCNC(=O)CCn3c(=O)c(C)nc4ccccc43)c2c1,781
9,COc1ccc2c(=O)cc(-c3cccnc3)oc2c1OC,763
10,COc1ccccc1NC(=O)NC1CCN(c2cc(C)cc(C)c2)C1=O (stereo not given),881
11,O=C(NCCc1ccccc1)Nc1ccccc1NC(=O)c1ccsc1,796
12,COC(=O)c1sc2ccccc2c1NC(=O)c1cccc(OC)c1OC,1020
13,CCCNC(=O)C1CCN(c2nc3ccc(-c4cncnc4)nc3s2)CC1,719
14,O=C(Nc1ccc(Nc2ccncc2)cc1)c1ccc(Nc2ccnc3ccc([N+](=O)[O-])cc23)cc1,636
15,CCN(Cc1ccc(F)cc1)Cc1cc(=O)n2cc(Cl)ccc2n1,578
16,O=S(=O)(c1ccc(Br)cc1)N1CCC(c2noc(-c3ccccc3)n2)CC1,1180
17,CC(C)c1ccc(-c2nc3ncccn3c2NCc2ccccc2)cc1,859
18,Cc1cc2c(c(=O)n(-c3ccccc3)c(=O)n2CC(=O)Nc2cccc(Cl)c2)n1C,870
19,CCc1nc(-c2csc(S(=O)(=O)N3CCC(C(=O)NCc4cccs4)CC3)c2)no1,860
20,CNC(=O)C1CCCN(c2nc3ncn(CC(=O)NC4CCCC4)c(=O)c3s2)C1 (stereo not given),605
21,Cc1nnc(-c2nnc(NCC3CCCCC3)c3ccccc23)o1,772

row,Structure (SMILES),RP-LC retention time [s]
1,COCC(=O)N(C1CCOCC1)C1CCN(S(=O)(=O)c2cccc(F)c2)CC1,758
2,Cc1noc2ncn(CC(=O)NCc3cccc(F)c3)c(=O)c12,712
3,COc1cc(CN2CCc3nc(N4CCCC4)ncc3C2)ccc1OC(C)C,641
4,COc1ccc(NS(=O)(=O)c2cc3n(c2)CCN(C)C3=O)cc1,657
5,CCc1cc(C(=O)N2CCOCC2)nc2cc(-c3cccs3)nn12,838
6,C=CCn1c(=O)c2ccccc2n(Cc2nc(-c3cccc(C)c3)no2)c1=O,1080
7,CCCNC(=O)N1CCC(c2cnn(-c3ccccc3)c2)CC1,779
8,CCn1nccc1C(=O)Nc1ccc2sc(C)nc2c1,697
9,O=C(Nc1cccc(OCc2nnc(-c3ccccc3)o2)c1)c1cncc(Br)c1,912
10,Cc1c(C(=O)NC2CC2)cnn1-c1ccc(SCc2ccccc2)nn1,866
11,COCCc1nnc(NC(=O)c2ccc3c(c2)CCCC3)o1,702
12,COc1ccc(OC)c(CNC(=O)Cn2ccc3ccc(-c4nnc(C)o4)cc32)c1,770
13,Cc1cccc(N2C(=O)CN(CCC(C)C)[C@H]3CS(=O)(=O)C[C@H]32)c1,811
14,CCOc1ccccc1NC(=O)N1CCC2(C1)C(=O)Nc1ccc(OC)cc12 (stereo not given),810
15,CC(C)NC(=O)C1CCCN(c2nc3ncn(CC(=O)Nc4cc(F)cc(F)c4)c(=O)c3s2)C1 (stereo not given),747
16,CCOC(=O)c1c(S(=O)(=O)N2CCC(C(=O)Nc3ccccc3)CC2)c(C)n(CC)c1C,795
17,Cc1ccc(-c2nc3nc(C)cc(N4CCCCC4C)n3n2)cc1 (stereo not given),1050
18,CCCc1nc(-c2c(C)cc(C)nc2NC(=O)c2ccc(F)cc2)no1,864
19,Cc1ccc(Cl)cc1NC(=O)Cn1nc2c(Oc3ccc(C(C)C)cc3)nccn2c1=O,1080
20,CCCC1c2nccn2CCCN1C(=O)c1occc1C (stereo not given),611

# Results, then the compound that gave them:
row,RP-LC retention time [s],Structure (SMILES)
1,790,CCn1ccc(C(=O)N2CCCN(C3=NS(=O)(=O)C(c4ccc(C)cc4)=C3C)CC2)n1
2,654,CN(Cc1nc2cc(C(=O)N3CCCC3)ccc2n1C)C(=O)Nc1ccc(Cl)cc1
3,480,O=C(c1cccs1)N1CCN(Cc2ccc(=O)n(CC3CC3)c2)CC1
4,925,CC(=O)N1c2ccc(S(=O)(=O)N3CCCCCC3)cc2CC1C(=O)NC(C)c1ccccc1 (stereo not given)
5,758,Cn1nccc1C(=O)N1CCCC1c1cccc(F)c1 (stereo not given)
6,826,O=C(c1cccnc1)N1CCN(c2ccccc2Cl)CC1
7,833,CC(=O)Nc1ccc(C(=O)N2CCN(c3ccc(F)cc3)CC2)c(N2CCCCC2)c1
8,879,COC(=O)C1=CN(c2ccccc2C)c2ccc(F)cc2S1(=O)=O
9,622,COc1ncccc1C(=O)N1CCC(C(=O)Nc2cc(C)on2)CC1
10,603,O=C(CN1CCN(Cc2ccc(F)cc2)C(=O)C1=O)N1CCN(Cc2ccccc2)CC1
11,691,CCn1c(=O)c(-c2noc(C(=O)N3CCN(c4ccccn4)CC3)n2)nn(-c2ccccc2)c1=O
12,662,CCOC(=O)N1CCN(C(=O)CCc2cc3cc(OC)ccc3[nH]c2=O)CC1
13,750,Clc1cccc(CN2CCN(c3cnn4c(C5CC5)nnc4c3)CC2)c1
14,828,CC(C)(C)N(C(=O)c1ccccc1[N+](=O)[O-])C(=O)N1CCCCC1
15,867,Cc1ccc(NC(=O)C2CC(=O)N(CCc3c[nH]c4ccc(F)cc34)C2)cc1C (stereo not given)
16,804,CCN1c2ccccc2C(=O)NC12CCN(C(=O)c1ccc(C)cc1)CC2
17,692,O=C(CCCc1ccccc1)N1CCN(c2nc(CN3CCCCC3)cs2)CC1
18,811,CC(C)NC(=O)c1ccc(OCC2CCN(C(=O)c3ccc(C#N)cc3)CC2)cc1
19,842,COc1ccc(NC(=O)C2CCCN(S(=O)(=O)c3c[nH]c(C(=O)N4CCCCCC4)c3)C2)cc1 (stereo not given)
20,647,CCCNC(=O)C1CCCN(c2ccc(SCC(=O)Nc3ccc(OC)cc3)nn2)C1 (stereo not given)
21,1030,CCc1cccc(NC(=O)N2CCc3cn(CCOC)c4cccc(c34)C2)c1
22,577,NC(=O)C1CCN(C(=O)CCn2cnc3cc(S(=O)(=O)N4CCCC4)ccc32)CC1
23,799,COC(=O)c1ccc(NC(=O)C2CC(=O)N(CCc3c[nH]c4ccc(F)cc34)C2)cc1 (stereo not given)
24,550,CCN1CCN(c2ncc3c(n2)CCN(Cc2cccc(Br)c2)C3)CC1
25,614,Cc1ccc(NC(=O)Nc2ccc3nc(N4CCN(C)CC4)cc(C)c3c2)cc1F
26,750,O=C(NCc1ccco1)c1ccc(NC(=O)C2CCC2)cc1N1CCOCC1
27,841,CC1CCCN(c2nc(=O)n(CC(=O)Nc3ccc(F)cc3)c3ccccc23)C1 (stereo not given)
28,946,COc1ccc(-c2noc(C3CCCN3C(=O)c3cccc(F)c3)n2)cc1 (stereo not given)
